Test results from patent publication US11000033B2, “Ketone or oxime compound, and herbicide” (NISSAN CHEMICAL CORPORATION, priority 2014, dated 2021).

Legend:
Format in all cases: in vivo
Setaria viridis [1] = test: Test Example 4: herbicidal effect by soil treatment (symbol G); settings: for G: Setaria viridis, herbicidal effect grade: 320 g/ha
Summary of the method: (§1)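 Seeds were sown in sterilized diluvial soil, covered with about 1.5 cm of soil, and the soil surface was sprayed with a water-diluted emulsion of the compound at a predetermined rate. Plants grew in a greenhouse at 25° C. to 30° C.; effects were scored visually 3 weeks after application.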

beet = test: Test Example 5: effect on crop by foliage application, plastic box (symbol f); settings: 320 g/ha, 3 weeks after application
Summary of the method: (§2)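 Foliage-application test plants come from spot sowing in sterilized diluvial soil under a soil layer of about 1.5 cm, grown at 25° C. to 30° C. in a greenhouse.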

Setaria viridis [2] = test: Test Example 5: herbicidal effect by foliage application, plastic box (symbol G); settings: 320 g/ha, 3 weeks after application
Summary of the method: (§3)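 Herbicide, formulated as an emulsion and diluted in water, is sprayed onto the aerial parts of 14-day seedlings. These were grown at 25° C. to 30° C. in sterilized diluvial soil; effects are graded after 3 weeks.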

Chenopodium album [3] = test: Test Example 4: herbicidal effect by soil treatment (symbol O); settings: for O: Chenopodium album, herbicidal effect grade: 320 g/ha
Summary of the method: as §1

[4] = system: Echinochloa oryzacola Vasing.; test: Test Example 2: herbicidal activity, application during weed generation in submerged conditions (symbol A); settings: Table 23; application herbicide amount 320 g/ha; grade 0-5 by criteria of Test Example 1
Summary of the method: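 Compound was applied as a water-diluted emulsion into the standing water of flooded pots (4 cm) once co-sown weeds reached one to two leaves. Greenhouse temperature was 25° C. to 30° C., soil was alluvial, and each species was rated visually after 3 weeks.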

Apera spica-venti = test: Test Example 4: herbicidal effect by soil treatment (symbol L); settings: for L: Apera spica-venti, herbicidal effect grade: 320 g/ha
Summary of the method: as §1

rice plant = test: Test Example 5: effect on crop by foliage application, plastic box (symbol b); settings: 320 g/ha, 3 weeks after application
Summary of the method: as §2

Stellaria media = test: Test Example 4: herbicidal effect by soil treatment (symbol P); settings: for P: Stellaria media, herbicidal effect grade: 320 g/ha
Summary of the method: as §1

Galium spurium = test: Test Example 4: herbicidal effect by soil treatment (symbol Q); settings: for Q: Galium spurium, herbicidal effect grade: 320 g/ha
Summary of the method: as §1

Veronica persica = test: Test Example 4: herbicidal effect by soil treatment (symbol R); settings: for R: Veronica persica, herbicidal effect grade: 320 g/ha
Summary of the method: as §1

Amaranthus retroflexus = test: Test Example 4: herbicidal effect by soil treatment (symbol N); settings: for N: Amaranthus retroflexus, herbicidal effect grade: 320 g/ha
Summary of the method: as §1

Chenopodium album [5] = test: Test Example 5: herbicidal effect by foliage application, plastic box (symbol O); settings: 320 g/ha, 3 weeks after application
Summary of the method: as §3

Avena fatua = test: Test Example 5: herbicidal effect by foliage application, plastic box (symbol I); settings: 320 g/ha, 3 weeks after application
Summary of the method: as §3

Monochoria vaginalis = test: Test Example 1: herbicidal activity, application before weed generation in submerged conditions (symbol C); settings: application herbicide amount 320 g/ha
Summary of the method: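 In a flooded pot test with alluvial soil, the emulsion-formulated compound was diluted with water to a predetermined amount and applied to the floodwater immediately on the sowing day. Pots were held in a greenhouse at 25–30 °C for 3 weeks before each weed was rated.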

[6] = application herbicide amount 320 g/ha

Structure (SMILES) | G (Setaria viridis) herbicidal effect grade (Setaria viridis [1]; [6]) | f: beet, effect on crop grade (beet) | G: Setaria viridis, herbicidal effect grade (Setaria viridis [2]) | O (Chenopodium album) herbicidal effect grade (Chenopodium album [3]; [6]) | Herbicidal effect grade, A: Echinochloa oryzacola Vasing. [4] | L (Apera spica-venti) herbicidal effect grade (Apera spica-venti; [6]) | b: directly sowed rice plant, effect on crop grade (rice plant) | P (Stellaria media) herbicidal effect grade (Stellaria media; [6]) | Q (Galium spurium) herbicidal effect grade (Galium spurium; [6]) | R (Veronica persica) herbicidal effect grade (Veronica persica; [6]) | N (Amaranthus retroflexus) herbicidal effect grade (Amaranthus retroflexus; [6]) | O: Chenopodium album, herbicidal effect grade (Chenopodium album [5]) | I: Avena fatua, herbicidal effect grade (Avena fatua) | Herbicidal effect grade, C: Monochoria vaginalis (Monochoria vaginalis) | f: beet, effect on crop (criteria 0-5) (beet) | G: Setaria viridis, herbicidal effect (criteria 0-5) (Setaria viridis [2]) | b: directly sowed rice plant, effect on crop (criteria 0-5) (rice plant) | O: Chenopodium album, herbicidal effect (criteria 0-5) (Chenopodium album [5]) | I: Avena fatua, herbicidal effect (criteria 0-5) (Avena fatua) | G: Setaria viridis, herbicidal effect grade (Setaria viridis [1]) | further results
CON=C(CC1CC(O)=C(c2c(C)cc(C)cc2C)C1=O)C(C)C (stereo not drawn) [1-048] | 5 (Herbicidal ratio of 90% or more (almost completely withered)) | 1 (Herbicidal ratio of 5% or higher and lower than 20%) | 4 (Herbicidal ratio of 70% or higher and lower than 90%) | 0 (Herbicidal ratio of 5% or lower (almost no effect)) | 5 (Herbicidal ratio of 90% or more (almost completely withered)) | 5 (Herbicidal ratio of 90% or more (almost completely withered)) | 5 (Herbicidal ratio of 90% or more (almost completely withered)) | 0 (Herbicidal ratio of 5% or lower (almost no effect)) | 0 (Herbicidal ratio of 5% or lower (almost no effect)) | 0 (Herbicidal ratio of 5% or lower (almost no effect)) | 1 (Herbicidal ratio of 5% or higher and lower than 20%) | 3 (Herbicidal ratio of 40% or higher and lower than 70%) | 4 (Herbicidal ratio of 70% or higher and lower than 90%) | 1 (Herbicidal ratio of 5% or higher and lower than 20%) |  |  |  |  |  |  | 
CON=C(CC1CC1)CC1CC(O)=C(c2c(C)cc(C)cc2C)C1=O (stereo not drawn) [1-070] | 4 (Herbicidal ratio of 70% or higher and lower than 90%) | 0 (Herbicidal ratio of 5% or lower (almost no effect)) | 5 (Herbicidal ratio of 90% or more (almost completely withered)) | 0 (Herbicidal ratio of 5% or lower (almost no effect)) | 4 (Herbicidal ratio of 70% or higher and lower than 90%) | 5 (Herbicidal ratio of 90% or more (almost completely withered)) | 5 (Herbicidal ratio of 90% or more (almost completely withered)) | 0 (Herbicidal ratio of 5% or lower (almost no effect)) | 0 (Herbicidal ratio of 5% or lower (almost no effect)) | 0 (Herbicidal ratio of 5% or lower (almost no effect)) | 0 (Herbicidal ratio of 5% or lower (almost no effect)) | 1 (Herbicidal ratio of 5% or higher and lower than 20%) | 5 (Herbicidal ratio of 90% or more (almost completely withered)) | 0 (Herbicidal ratio of 5% or lower (almost no effect)) |  |  |  |  |  |  | 
CON=C(C)CC1CC(OC(=O)COc2cccc(C#N)c2)=C(c2c(C)cc(C)cc2C)C1=O (stereo not drawn) [1-074] | 5 (Herbicidal ratio of 90% or more (almost completely withered)) |  |  | 0 (Herbicidal ratio of 5% or lower (almost no effect)) | 5 (Herbicidal ratio of 90% or more (almost completely withered)) | 5 (Herbicidal ratio of 90% or more (almost completely withered)) |  | 0 (Herbicidal ratio of 5% or lower (almost no effect)) | 0 (Herbicidal ratio of 5% or lower (almost no effect)) | 0 (Herbicidal ratio of 5% or lower (almost no effect)) | 5 (Herbicidal ratio of 90% or more (almost completely withered)) |  |  | 4 (Herbicidal ratio of 70% or higher and lower than 90%) | 0 (Herbicidal ratio of 5% or lower (almost no effect)) | 5 (Herbicidal ratio of 90% or more (almost completely withered)) | 5 (Herbicidal ratio of 90% or more (almost completely withered)) | 2 (Herbicidal ratio of 20% or higher and lower than 40%) | 5 (Herbicidal ratio of 90% or more (almost completely withered)) |  | 
COCC(=O)OC1=C(c2c(C)cc(C)cc2C)C(=O)C(CC(C)=NOC)C1 (stereo not drawn) [1-093] |  |  |  |  | 5 (Herbicidal ratio of 90% or more (almost completely withered)) |  |  |  |  |  |  |  |  | 2 (Herbicidal ratio of 20% or higher and lower than 40%) | 0 (Herbicidal ratio of 5% or lower (almost no effect)) | 5 (Herbicidal ratio of 90% or more (almost completely withered)) | 5 (Herbicidal ratio of 90% or more (almost completely withered)) | 0 (Herbicidal ratio of 5% or lower (almost no effect)) | 5 (Herbicidal ratio of 90% or more (almost completely withered)) | 5 (Herbicidal ratio of 90% or more (almost completely withered)) | O: Chenopodium album, herbicidal effect grade (Chenopodium album [3]): 0 (Herbicidal ratio of 5% or lower (almost no effect)); L: Apera spica-venti, herbicidal effect grade (Apera spica-venti): 5 (Herbicidal ratio of 90% or more (almost completely withered)); P: Stellaria media, herbicidal effect grade (Stellaria media): 0 (Herbicidal ratio of 5% or lower (almost no effect)); Q: Galium spurium, herbicidal effect grade (Galium spurium): 0 (Herbicidal ratio of 5% or lower (almost no effect)); R: Veronica persica, herbicidal effect grade (Veronica persica): 0 (Herbicidal ratio of 5% or lower (almost no effect)); N: Amaranthus retroflexus, herbicidal effect grade (Amaranthus retroflexus): 3 (Herbicidal ratio of 40% or higher and lower than 70%)
CC#CC(=O)OC1=C(c2c(C)cc(C)cc2C)C(=O)C(CC(C)=NOC)C1 (stereo not drawn) [1-095] |  |  |  |  | 5 (Herbicidal ratio of 90% or more (almost completely withered)) |  |  |  |  |  |  |  |  | 2 (Herbicidal ratio of 20% or higher and lower than 40%) | 0 (Herbicidal ratio of 5% or lower (almost no effect)) | 5 (Herbicidal ratio of 90% or more (almost completely withered)) | 5 (Herbicidal ratio of 90% or more (almost completely withered)) | 0 (Herbicidal ratio of 5% or lower (almost no effect)) | 5 (Herbicidal ratio of 90% or more (almost completely withered)) | 5 (Herbicidal ratio of 90% or more (almost completely withered)) | O: Chenopodium album, herbicidal effect grade (Chenopodium album [3]): 0 (Herbicidal ratio of 5% or lower (almost no effect)); L: Apera spica-venti, herbicidal effect grade (Apera spica-venti): 5 (Herbicidal ratio of 90% or more (almost completely withered)); P: Stellaria media, herbicidal effect grade (Stellaria media): 0 (Herbicidal ratio of 5% or lower (almost no effect)); Q: Galium spurium, herbicidal effect grade (Galium spurium): 0 (Herbicidal ratio of 5% or lower (almost no effect)); R: Veronica persica, herbicidal effect grade (Veronica persica): 1 (Herbicidal ratio of 5% or higher and lower than 20%); N: Amaranthus retroflexus, herbicidal effect grade (Amaranthus retroflexus): 4 (Herbicidal ratio of 70% or higher and lower than 90%)
CC#Cc1cc(C)c(C2=C(OC(=O)COc3ccccc3)CC(CC(=NOC)C(C)C)C2=O)c(C)c1 (stereo not drawn) [9-003] |  | 1 (Herbicidal ratio of 5% or higher and lower than 20%) | 5 (Herbicidal ratio of 90% or more (almost completely withered)) |  | 5 (Herbicidal ratio of 90% or more (almost completely withered)) |  | 5 (Herbicidal ratio of 90% or more (almost completely withered)) |  |  |  |  | 3 (Herbicidal ratio of 40% or higher and lower than 70%) | 4 (Herbicidal ratio of 70% or higher and lower than 90%) | 1 (Herbicidal ratio of 5% or higher and lower than 20%) |  |  |  |  |  |  | Herbicidal effect grade, G: Setaria viridis (Setaria viridis [1]; [6]): 5 (Herbicidal ratio of 90% or more (almost completely withered)); Herbicidal effect grade, O: Chenopodium album (Chenopodium album [3]; [6]): 0 (Herbicidal ratio of 5% or lower (almost no effect)); Herbicidal effect grade, L: Apera spica-venti (Apera spica-venti; [6]): 5 (Herbicidal ratio of 90% or more (almost completely withered)); Herbicidal effect grade, P: Stellaria media (Stellaria media; [6]): 0 (Herbicidal ratio of 5% or lower (almost no effect)); Herbicidal effect grade, Q: Galium spurium (Galium spurium; [6]): 0 (Herbicidal ratio of 5% or lower (almost no effect)); Herbicidal effect grade, R: Veronica persica (Veronica persica; [6]): 0 (Herbicidal ratio of 5% or lower (almost no effect)); Herbicidal effect grade, N: Amaranthus retroflexus (Amaranthus retroflexus; [6]): 0 (Herbicidal ratio of 5% or lower (almost no effect))
